From patent publication US20190307783A1, “USE OF ANTIVIRALS TO INHIBIT PROTOZOAN VIRUSES” (priority 2016, published 2019)
Read-outs that look alike come from different tables or passages of the source.

Tests used:
[1] = test system: L. braziliensis strains bearing LRV1; test: Growth inhibition of L. braziliensis strains bearing LRV1; type: cell-based; conditions: Leishmania braziliensis
Description: For 2CMA, the EC50 was estimated to be ˜3 μM for LRV1 capsid inhibition, versus >100 μM for parasite growth (FIG. 11A), at least 30-fold selective. […] Several studies were carried out with L. braziliensis strains bearing LRV1 (12). The 2CMA EC50 for LbrLRV1 was similar to that seen with LgyLRV1 (˜3 μM); however, parasites were somewhat more susceptible to growth inhibition (EC50 50-100 μM). Because the available quantities of 7d2CMA were limiting and both compounds were similarly selective for L. guyanensis, we focused thereafter on 2CMA.
Most studies were performed using luciferase-expressing transfectants of L. guyanensis (MHOM/BR/78/M4147) described previously [LRV1^+ LgyM4147/SSU:IR2SAT-LUC(b)c3 and LRV^−LgyM4147/pX63HYG/SSU:IR2SAT-LUC(b)c4] (54); these lines are termed LgyLRV1^+ and LgyLRV1^−, respectively. Two strains of LRV1^+L. braziliensis were examined: LEM2780 (MHOM/BO/90/CS) and LEM3874 (MHOM/BO/99/IMT252 no. 3) (12). Parasites were grown in Schneider's media (Sigma Aldrich, St. Louis, Mo., USA) prepared according to the supplier's instructions with pH adjusted to 6.5 and supplemented with 0.76 mM hemin, 2 μg/mL biopterin, 50 U/mL penicillin, 50 μg/mL streptomycin, and 10% (vol/vol) heat-inactivated FBS. Cell concentrations were determined using a Coulter Counter ([…], Indianapolis, Ind., USA).

L. guyanensis (LgyLRV1+) = test: Drug-inhibition test: growth of LgyLRV1+ parasites; type: cell-based, Leishmania guyanensis
[2] = test system: LRV1 (LgyLRV1 capsid levels); test: organism not typed; conditions: for LgyLRV1− population in washout, of total cell population / Parasites with LgyLRV1+ capsid levels in washout population: then drug-free media

C[C@@]1(O)[C@H](O)[C@@H](CO)O[C@H]1n1cnc2c(N)ncnc21 [2′C-methyadenosine, 2′-C-methyladenosine]
EC50 [1]: 50000 to 100000 nM | Population doubling time (L. guyanensis (LgyLRV1+); L. guyanensis at 100 μM, untreated 6.4 hours): 8.5 h | activity at 100 µM (L. guyanensis (LgyLRV1+); Leishmania guyanensis, 48 h, LgyLRV1+, tested at 100 μM, growth after 2 days, read-out: Percent control (density)): 72% | EC50 (L. guyanensis (LgyLRV1+); Leishmania guyanensis, L. guyanensis, relative cellular growth rate, titration, read-out: EC50 for parasite growth): > 100000 nM | inhibition at 100 µM (L. guyanensis (LgyLRV1+); Leishmania guyanensis, tested at 100 μM, read-out: Inhibition of parasite density): 30% | Density (cells/mL) (L. guyanensis (LgyLRV1+); LgyLRV1+, tested at 100 μM, growth after 2 days): 1.22E+7 cells/mL | LgyLRV1− population in washout, of total cell population ([2]; 100 μM for four doublings): 50% | Parasites with LgyLRV1+ capsid levels in washout population ([2]; 100 μM for four doublings): 36% | LgyLRV1− population in washout, of total cell population ([2]; 100 μM for three doublings): 31% | Parasites with LgyLRV1+ capsid levels in washout population ([2]; 100 μM for three doublings): 55% | Fold less LRV1 capsid expression ([2]; 100 μM maintained for four cell doublings): 16 fold | Fold less LRV1 capsid expression ([2]; 100 μM maintained for three cell doublings): 8 fold | Loss of LRV1 capsid and RNA at every cell doubling ([2]; 100 μM, capsid flow cytometry and qRT-PCR): 50% | EC50 ([2]; 48 h, read-out: EC50 for 2CMA inhibition of LRV1 in the presence of allopurinol): ~3000 nM | activity at 100 µM ([2]; 48 h, read-out: Percent control (LRV1 capsid)): 7% | Selectivity for LRV1 versus L. guyanensis growth inhibition ([2]; EC50 growth vs EC50 LRV1 capsid): at least 30 fold | LRV1 capsid (geometric mean FU) ([2]; LgyLRV1+, tested at 100 μM, 2 days): 19 FU | EC50 ([2]; read-out: EC50 for LRV1 capsid inhibition): ~3000 nM | Reduction in LRV1 capsid levels ([2]; tested at 100 μM): 12 fold
